Results: publication PMC4515429, “Anti-Biofilm and Immunomodulatory Activities of Peptides That Inhibit Biofilms Formed by Pathogens Isolated from Cystic Fibrosis Patients” (Antibiotics, 2014)
In brackets after ≈: the same amount, converted by molar mass. Like-named read-outs stand apart in the source and are kept apart here. Where a SMILES comes first, the peptide text is derived from it. Bridges are numbered along the chain shown (N, C = ends). Where no end group is shown, it is not given here. [ ]: non-standard residue; d: D form. The star is where a group is joined. X1 = CC[C@H](C)CCCCC(=O)*; Dab = NCC[C@H](N)C(=O)O

How the values were obtained:
[1] = tested on: B. cenocepacia C5424 (IIIa); details: 18 h
Description: (§1) In addition to the wild type lab isolates Pseudomonas aeruginosa strains PAO1 and PA14, a variety of cystic fibrosis clinical isolates of P. aeruginosa and Burkholderia cepacia complex strains were utilized (Table 1). Planktonic cells from each of the P. aeruginosa and B. cepacia strains were grown in BM2 glucose or cation-adjusted Mueller-Hinton. The minimal inhibitory concentration (MIC) for peptides in brain-heart infusion (BHI) was assessed by the broth microdilution method with minor modifications for cationic peptides. […] MIC assays were performed in sterile 96-well polypropylene microtiter plates. […] The plates were incubated at 37 °C for 18 h.

[2] = tested on: P. aeruginosa C2773 (Classic)
Description: as §1

[3] = tested on: P. aeruginosa 2639 (Mucoid)
Description: as §1

[4] = tested on: B. multivorans D2661 (Genomovar II); details: 18 h
Description: as §1

[5] = tested on: B. ambifaria CEP0996 (VII); details: 18 h
Description: as §1

[6] = tested on: P. aeruginosa 3195 (Classic)
Description: as §1

[7] = tested on: P. aeruginosa 7632 (Classic)
Description: as §1

P. aeruginosa PA14 = tested on: P. aeruginosa PA14
Description: as §1

B. dolosa CEP0021 (VI) = details: 18 h
Description: as §1

[8] = tested on: B. cenocepacia 4813 (IIIa); details: 18 h
Description: as §1

[9] = tested on: B. cenocepacia CEP0055 (IIIb); details: 18 h
Description: as §1

[10] = tested on: P. aeruginosa C4276 (Classic)
Description: as §1

[11] = tested on: P. aeruginosa 7633 (Entire)
Description: as §1

[12] = tested on: P. aeruginosa C4278 (Mucoid)
Description: as §1

[13] = tested on: P. aeruginosa 3330 (Classic)
Description: as §1

[14] = tested on: P. aeruginosa 4020 (Classic)
Description: as §1

B. stabilis C6061 (IV) = details: 18 h
Description: as §1

P. aeruginosa PA01 = details: 18 h
Description: as §1

[15] = tested on: P. aeruginosa 2631 (Classic)
Description: as §1

[16] = tested on: P. aeruginosa 1172 (Classic)
Description: as §1

[17] = tested on: P. aeruginosa 4608 (Mucoid)
Description: as §1

[18] = tested on: B. cenocepacia CEP509 (IIIb); details: 18 h
Description: as §1

P. aeruginosa = details: at one sixteenth the minimum inhibitory concentration (MIC); cited from earlier work
From the text: Cationic host defense (antimicrobial) peptides represent a novel alternative to conventional antibiotics. […] Similar results were subsequently shown by other groups. This encouraged t ...

[19] = tested on: planktonic cells of Burkholderia strains
Description: as §1

[20] = planktonic cells, broth microdilution, BHI, 5 × 10^5 CFU/mL, 37 °C, performed at least three times
[21] = planktonic cells, broth microdilution, BHI, 5 × 10^5 CFU/mL, 37 °C, 18 h, performed at least three times

## CC[C@H](C)[C@H](NC(=O)[C@H](CCCCN)NC(=O)[C@H](CCC(=O)O)NC(=O)[C@H](CCCCN)NC(=O)[C@H](CO)NC(=O)[C@H](CCCCN)NC(=O)[C@H](CCCNC(=N)N)NC(=O)[C@H](Cc1ccccc1)NC(=O)[C@H](Cc1ccccc1)NC(=O)[C@H](CC(=O)O)NC(=O)CNC(=O)[C@H](CC(C)C)NC(=O)[C@@H](N)CC(C)C)C(=O)NCC(=O)N[C@@H](CCCCN)C(=O)N[C@@H](CCC(=O)O)C(=O)N[C@@H](Cc1ccccc1)C(=O)N[C@@H](CCCCN)C(=O)N[C@@H](CCCNC(=N)N)C(=O)N[C@H](C(=O)N[C@H](C(=O)N[C@@H](CCC(N)=O)C(=O)N[C@@H](CCCNC(=N)N)C(=O)N[C@H](C(=O)N[C@@H](CCCCN)C(=O)N[C@@H](CC(=O)O)C(=O)N[C@@H](Cc1ccccc1)C(=O)N[C@@H](CC(C)C)C(=O)N[C@@H](CCCNC(=N)N)C(=O)N[C@@H](CC(N)=O)C(=O)N[C@@H](CC(C)C)C(=O)N[C@H](C(=O)N1CCC[C@H]1C(=O)N[C@@H](CCCNC(=N)N)C(=O)N[C@H](C(=O)N[C@@H](CCC(=O)O)C(=O)N[C@@H](CO)C(=O)O)[C@@H](C)O)C(C)C)[C@@H](C)CC)C(C)C)[C@@H](C)CC [LL-37]
[1]; [20]
  MIC: >256 µg/mL
[2]; [21]
  MIC: 256 µg/mL (≈ 57 µM)
[3]; [21]
  MIC: >128 µg/mL
[4]; [20]
  MIC: >512 µg/mL
[5]; [20]
  MIC: >512 µg/mL
[6]; [21]
  MIC: 64 µg/mL (≈ 14.2 µM)
[7]; [21]
  MIC: 256 µg/mL (≈ 57 µM)
P. aeruginosa PA14; [21]
  MIC: 32 µg/mL (≈ 7.12 µM)
B. dolosa CEP0021 (VI); [20]
  MIC: >512 µg/mL
[8]; [20]
  MIC: >256 µg/mL
[9]; [20]
  MIC: >512 µg/mL
[10]; [21]
  MIC: 256 µg/mL (≈ 57 µM)
[11]; [21]
  MIC: >128 µg/mL
[12]; [21]
  MIC: >256 µg/mL
[13]; [21]
  MIC: >128 µg/mL
[14]; [21]
  MIC: >128 µg/mL
B. stabilis C6061 (IV); [20]
  MIC: >512 µg/mL
P. aeruginosa PA01; [20]
  MIC: 32 µg/mL (≈ 7.12 µM)
[15]; [21]
  MIC: >256 µg/mL
[16]; [21]
  MIC: >128 µg/mL
[17]; [21]
  MIC: >128 µg/mL
[18]; [20]
  MIC: >512 µg/mL
P. aeruginosa
  decrease in biofilm formation: 50%

## CC[C@H](C)CCCCC(=O)N[C@@H](CCN)C(=O)N[C@H](C(=O)N[C@@H](CCN)C(=O)N[C@H]1CCNC(=O)[C@H]([C@@H](C)O)NC(=O)[C@H](CCN)NC(=O)[C@H](CCN)NC(=O)[C@H](CC(C)C)NC(=O)[C@@H](Cc2ccccc2)NC(=O)[C@H](CCN)NC1=O)[C@@H](C)O [Polymyxin B] (X1-[Dab]T[Dab][Dab][Dab][dF]L[Dab][Dab]T; lactam 4-C (inferred); N-terminus assumed)
[1]
  MIC: >128 µg/mL
[2]; C2773 (Classic, 18 h)
  MIC: 4 µg/mL (≈ 3.32 µM)
[3]; 2639 (Mucoid, 18 h)
  MIC: 2 µg/mL (≈ 1.66 µM)
[4]
  MIC: >128 µg/mL
[5]
  MIC: >128 µg/mL
[6]; 3195 (Classic, 18 h)
  MIC: 2 µg/mL (≈ 1.66 µM)
[7]; 7632 (Classic, 18 h)
  MIC: 2 µg/mL (≈ 1.66 µM)
P. aeruginosa PA14; PA14, 18 h
  MIC: 2 µg/mL (≈ 1.66 µM)
B. dolosa CEP0021 (VI)
  MIC: >128 µg/mL
[8]
  MIC: >128 µg/mL
[9]
  MIC: >128 µg/mL
[10]; C4276 (Classic, 18 h)
  MIC: 2 µg/mL (≈ 1.66 µM)
[11]; 7633 (Entire, 18 h)
  MIC: 2 µg/mL (≈ 1.66 µM)
[12]; C4278 (Mucoid, 18 h)
  MIC: 2 µg/mL (≈ 1.66 µM)
[13]; 3330 (Classic, 18 h)
  MIC: 2 µg/mL (≈ 1.66 µM)
[14]; 4020 (Classic, 18 h)
  MIC: 2 µg/mL (≈ 1.66 µM)
B. stabilis C6061 (IV)
  MIC: >128 µg/mL
P. aeruginosa PA01
  MIC: 2 µg/mL (≈ 1.66 µM)
[15]; 2631 (Classic, 18 h)
  MIC: 4 µg/mL (≈ 3.32 µM)
[16]; 1172 (Classic, 18 h)
  MIC: 2 µg/mL (≈ 1.66 µM)
[17]; 4608 (Mucoid, 18 h)
  MIC: 2 µg/mL (≈ 1.66 µM)
[18]
  MIC: >128 µg/mL

## KRWWKWIRW-NH2 (C-terminus assumed) [HHC-10]
[19]
  MIC against planktonic cells of Burkholderia strains: > 256 µg/mL

## KRWWKWWRR-NH2 (C-terminus assumed) [HHC-36]
[19]
  MIC against planktonic cells of Burkholderia strains: > 256 µg/mL

## RFKRVARVIW [HE12]
P. aeruginosa PA14; PA14, 18 h
  MIC: 80 µg/mL
